Measurements published in patent US11630110B2, “Methods to identify protein interaction” (AGENCY FOR SCIENCE, TECHNOLOGY AND RESEARCH, priority 2017, dated 2023).

What was measured:
K562 cells = assay: DNA content analysis by FACS of propidium iodide staining; type: cell-based; conditions: 20 μM methotrexate, 48 hours, vs DMSO, FIG. 34
NF-kβ signaling pathway = assay: Western blotting of NFκB signalling pathway members; type: cell-based; conditions: K562 cells, 20 μM methotrexate 48 hours, presence and absence of TNF; FIG. 16A
Description: Cells were washed with DPBS (without calcium and magnesium) once, then lysed in TOTEX Buffer (20 mM Hepes at pH 7.9, 0.35M NaCl, 20% Glycerol, 1% NP-40, 1 mM MgCl2, 0.1 mM EGTA) including 50 mM NaF, 0.3 mM […] and protease inhibitor cocktail. Supernatant including proteins was collected, followed by centrifugation at full speed for 20 minutes. Western blotting was performed by following standard procedures using the following antibodies: Rabbit Anti-phospho-IKKα/β (S180/181) (1:1,000; Bioworld Technology, BS5082), Rabbit Anti-phospho-IKBα (S32) (1:1,000; Cell Signalling Technology, 2859), Rabbit Anti-IKBα (1:1,000; Santa Cruz Biotechnology, sc-371), Rabbit Anti-phospho-p65 ([…]) (1:1,000; Cell Signalling Technology, 3031), Mouse Anti-HSP90 (1:1,000; BD, 610419), Goat Anti-Rabbit IgG-HRP (1:5,000; Santa Cruz Biotechnology, sc-2054) and Goat Anti-Mouse IgG-HRP (1:5,000; Santa Cruz Biotechnology, sc-2005).

For CN(Cc1cnc2nc(N)nc(N)c2n1)c1ccc(C(=O)N[C@@H](CCC(=O)O)C(=O)O)cc1 [methotrexate], the “cell cycle state of K562 cells” value (K562 cells) was “arrested in the S phase”, the “activation of the NF-kβ signaling pathway” value (NF-kβ signaling pathway) was “suppressing activation” and the “phosphorylation of IKKα/β complex, IκBα and p65” value (NF-kβ signaling pathway) was “inhibiting phosphorylation”.
